“Also recorded” adds a separate entry of the source.
Key:
[1] = cited from earlier work
[2] = in vivo
Procedure: Dosages of other antioxidants will vary with the antioxidant, and are determined on an individual basis.

[3] = Huntington's disease, N=11; cited from earlier work
[4] = system: glutamate-induced neurotoxicity in neocortical cell cultures, in vitro hypoxia and glucose deprivation models; details: cited from earlier work
[5] = system: neocortical ischemic neuronal damage and edema; details: cited from earlier work
[6] = single oral dose 30 mg, extensive metabolizers (N=5); cited from earlier work
[7] = ALS, detectable in only 1 of 7 patients, 4.8 to 10 mg/kg/day, at 3 months; cited from earlier work
[8] = Dextromethorphan with quinidine in healthy subjects (Pope et al.); type: in vivo, human; details: from 68-fold concentration in brain and plasma levels with quinidine
Procedure: The use of quinidine to inhibit the rapid first-pass metabolism of dextromethorphan allows the attainment of potential neuroprotective drug levels in the brain. […] This dose, 30 mg twice daily (BID) given with 60 mg BID dextromethorphan, increased plasma levels of dextromethorphan 25-fold. In this manner, coadministration of 30 mg of quinidine BID with dextromethorphan in the three unsuccessful amyotrophic lateral sclerosis neuroprotection trials could have readily transformed the inadequate dextromethorphan doses into standard neuroprotective plasma concentrations.
Given the 68-fold concentration of dextromethorphan in brain found in neurosurgery patients (Steinberg et al. J Neurosurg. 1996; 84:860-6), an estimated brain concentration of 13,100 ng/g (about 48 microM) is achievable. This corresponds to neuroprotective levels established in preclinical in vitro (Choi et al. J Pharmacol Exp Ther. 1987; 242:713-20) and in vivo (Steinberg et al. Neurol Res. 1993; 15:174-80) studies.
A reasonable concern is that the achievement of higher dextromethorphan plasma concentrations, as well as the use of quinidine, may be associated with an increased occurrence of adverse events, particularly in patients with neurological disorders. […] No difference was found between the extensive and poor metabolizer phenotypes. […]

[9] = system: amyotrophic lateral sclerosis; details: cited from earlier work
[10] = system: perioperative brain injury; details: cited from earlier work
[11] = system: methotrexate (MTX) neurotoxicity; details: oral 1-2 mg/kg, N=5, all patients; cited from earlier work
[12] = cited from earlier work; remark: listed apart in the source

In the case of `C=C[C@H]1C[N@]2CC[C@@H]1C[C@@H]2[C@@H](O)c1ccnc2ccc(OC)cc12` [quinidine], the “lowest dose needed to maximally suppress O-demethylation of dextromethorphan” value ([1]; human, in vivo) is listed as “about 30 mg” and the “increase of plasma levels of dextromethorphan” value ([1]; quinidine 30 mg BID given with 60 mg BID dextromethorphan) is listed as 25 fold.
For `CNCCC(Oc1ccc(C(F)(F)F)cc1)c1ccccc1` (stereo not drawn) [fluoxetine], the “increase of dextromethorphan concentrations in the blood” value [2] was “effective in increasing dextromethorphan concentrations in the blood of some people”.
In the case of `COc1ccc2c(c1)[C@]13CCCCC1[C@H](C2)N(C)CC3` (single isomer, unassigned; (+)) [dextromethorphan, (+)-3-methoxy-N-methylmorphinan], the “median peak tolerated dose” value [3] is listed as 410 mg/day, the “concentration giving almost complete protection” value [4] is listed as 100 µM and the “neuroprotective plasma (serum) levels” value ([5]; animal models of cerebral ischemia) is listed as ≥ 500 ng/mL. The neuroprotective brain levels ([5]; conversion of 10,000 ng/g) was “about 37 microM”, the dextromethorphan in plasma [6] was “not detectable or at the limits of detection” and the “steady-state plasma level (Cmax)” value [7] was 190 ng/mL. For the same molecule, the “estimated brain concentration achievable” value [8] was 13,100 ng/g and about 48 microM, the “clinical or neurophysiological parameter improvements” value ([9]; Askmark et al., N=14, 150 mg/day 12-week crossover, then 300 mg/day open) was “no clinical or neurophysiological parameter” and the “rate of disease progression vs placebo” value ([9]; Blin et al., N=49, 1.5 mg/kg/day, 1-year) was “no significant differences in rate of disease progression”. The 12-month survival ([9]; Gredal et al., N=45, 150 mg/day) was “did not demonstrate an improvement in 12-month survival”, the “levels in CSF” value ([10]; oral 36-38 mg/kg/day, children, cardiac surgery) was 285 to 939 ng/mL and the adverse events ([10]; oral 36-38 mg/kg/day) was “not observed”. The “postoperative EEG sharp waves” value ([10]; p=0.02, N=13) was “significantly decreased postoperative EEG sharp waves”, the “third ventricle postoperative enlargement, diameter” value ([10]; vs. 0.256 cm placebo, p=0.06) was 0.112 cm and the “rate of postoperative periventricular white matter lesions” value ([10]; vs. 2/7 placebo) was 0/6. For the same molecule, the “neurological symptoms of MTX neurotoxicity” value [11] was “completely resolved neurological symptoms; also recorded: completely resolved neurological deficits”, the AUC0-12 ([1]; 120 mg daily dextromethorphan (60 mg BID) with quinidine (30 mg BID), steady state) was 1963 ± 609 ng·h/mL and the “steady state peak plasma levels” value ([1]; 120 mg daily dextromethorphan (60 mg BID) with quinidine (30 mg BID)) was 192 ± 45 ng/mL. The adverse reactions ([12]; even at the highest levels, symptoms tolerable and reversible) was “no patient suffered severe adverse reactions”, the “maximum level in serum” value ([12]; neurosurgery patients, maximum 9.64 mg/kg oral dose) was 1514 ng/mL and the “maximum level in brain” value ([12]; neurosurgery patients) was 92,700 ng/g.

Reference: US20090111846A1, “PHARMACEUTICAL COMPOSITIONS COMPRISING DEXTROMETHORPHAN AND QUINIDINE FOR THE TREATMENT OF DEPRESSION, ANXIETY, AND NEURODEGENERATIVE DISORDERS” (Avanir Pharmaceuticals, priority 2006, published 2009)
